Data: patent US20110281852A1 (priority 2010, published 2011)

How the values were obtained:
[1] = Serum total cholesterol assay in mice; format: in vivo, mouse
Method: (§1) Six mice per subgroup were obtained finally.
Serum glucose, triglyceride, cholesterol assay: Blood samples from each mouse were collected and serum was separated by centrifugation for the measurement of levels of glucose, triglyceride and total cholesterol. Serum glucose concentrations were analyzed using Glucose (HK) Assay Kit (Sigma-aldrich, Saint Louis, Mo., USA). Serum triglyceride concentrations were analyzed using Serum Triglyceride Determination Kit (Sigma-aldrich, Saint Louis, Mo., USA). Serum cholesterol concentrations were analyzed using Amplex® Red Cholesterol Assay Kit (Invitrogen, Carlsbad, Calif., USA). All experimental assays were done according to the manufacturer's instructions.

[2] = Description: Mouse experiments: All experiments were approved by Institutional Animal Care and Use Committee of South Dakota State University. Nine-week-old C57BL/6J male mice were purchased from The Jackson Laboratory. Group 1 mice were fed with normal diet (ND, D12450Bi, Research Diets Inc. New Brunswick, N.J., USA) for 9 weeks, group 2 mice were fed with ND for 6 weeks and then high-fat diet (FD, D12451i, Research Diets Inc. New Brunswick, N.J., USA) for 3 weeks. The mice were maintained according to The Jackson Laboratory guidelines for animal care and housed at 22±2° C. temperature, 55±5% relative humidity, with a light/dark cycle of 12 hours. Food (group 1 with normal fat diet and group 2 with high-fat diet until sacrifice) and water were provided ad libitum. […] Six mice per subgroup were obtained finally. […] Blood samples were collected from the hearts of anesthetized mice after feeding and treatment for 36 days following fast for 16 hours. When sacrificed, mouse liver, kidney, spleen and epididymal fat tissues were dissected and weighed. Epididymal fat tissues were immediately frozen in liquid nitrogen and stored at −80° C.
3T3-L1 cells [3] = test: Quantitative Oil Red O staining, 3T3-L1 adipocyte differentiation (Example 1); format: cell-based, mouse; conditions: for reduction in fat droplets: 6 days post differentiation induction
Method: Oil-Red-O Staining: Oil-Red-O Staining was performed as previously described (Liu et al. 2004). Images were obtained using an Olympus IX70 inverted microscope (Tokyo, Japan). Quantification Oil-Red-O Staining of cells was carried out as described (Furuyashiki et al., Biosci Biotechnol Biochem (2004) 68:[…]).
Standard Oil Red O staining was then used to examine the extent of differentiation process at days 2, 4, 6, and 8 using microscopy. […] (FIG. 4).

[4] = Food intake, high-fat diet and normal diet mice; format: in vivo, mouse
Description: as §1

3T3-L1 cells [5] = test: Oil-Red-O staining and quantification, clozapine/risperidone induced adipogenesis in 3T3-L1 (Example 2); format: cell-based, mouse; conditions: 8 μM berberine, 8 days
Method: Detailed protocol was described as our previous report (Hu et al., Phytomedicine (2009) 16(9):864-873).
Oil-Red-O staining and quantification: Oil-Red-O Staining and its quantification were performed as previously reported (Liu et al., Sinica (2004) 25:1052-1057). Briefly, medium was removed and cells were washed with PBS twice, fixed with 3.7% formalin at room temperature for 30 min, then rinsed with pure water, added 60% isopropanol and incubated for 5 minutes, then moved out isopropanol and stained cells with diluted Oil-Red-O solution (Oil-Red-O store solution (3 mg/ml in pure isopropanol): water=3:2) at room temperature for 10 min. Then the diluted Oil-Red-O solution was removed and cells were washed 3 times with pure water. Images were obtained using an Olympus IX70 inverted microscope equipped for phase-contrast microscopy (Olympus, Tokyo, Japan). After staining, the cells were washed twice with 70% ethanol to remove excess stain. Stained oil droplets in the cells were dissolved in isopropanol containing 4% Nonidet-P40 (Fisher Scientific, Pittsburgh, Pa., USA) shaking in 37° C. at speed 100 rpm for 1 hour, and OD values were measured at an absorbance of 490 nm and then normalized with control group.

[6] = tested on: SERT (serotonin transporter); test: Real-Time RT-PCR, SERT mRNA in RN46A cells; format: cell-based
Method: Realtime RT-PCR: Real-Time reverse transcriptase polymerase chain reaction (RT-PCR) analysis was used to measure mRNA expression of SERT under the control of β-actin. Briefly, total RNA was isolated from RN46A cells following treatment with Trizol reagent (Invitrogen, Carlsbad, Calif., USA) according to the manufacturer's instruction. […] 0.8 μg of total RNA from each sample was used for reverse transcription reaction using the TaqMan Reverse Transcription Reagents (Applied Biosystems, Foster City, Calif., USA) following the manufacturer's instructions. PCR was done using the SYBR green Master Mix (Applied Biosystems, Foster City, Calif., USA) following the manufacturer's instructions. The temperature cycling conditions of amplification were as follows: an initial step of denaturation at 95° C. for 10 min, 40 cycles of denaturation at 95° C. for 30 s, annealing at 55° C. for 30 s, and elongation at 72° C. for 30 s. Real-Time RT-PCR was performed using Mx3000P Real-Time Thermocyclers (Statagene, La Jolla, Calif., USA).

[7] = FD mice, 1.5 mg/kg/day, 36 days

COc1ccc2cc3[n+](cc2c1OC)CCc1cc2c(cc1-3)OCO2.[Cl-] [berberine, Berberine (Chloride Form)]
reduction of serum total cholesterol level ([1]; FD mice, 0.75 mg/kg/day): 18.7%
serum total cholesterol level ([1]; FD mice, 0.75 mg/kg/day, 36 days (control 152.4±15.2)): 123.9 ± 16.5 mg/dL
reduction of serum total cholesterol level ([1]; FD mice, 1.5 mg/kg/day): 22.2%
serum total cholesterol level [1, 7]: 118.5 ± 14.7 mg/dL
reduction of serum total cholesterol level ([1]; FD mice, 3 mg/kg/day): 28%
serum total cholesterol level ([1]; FD mice, 3 mg/kg/day, 36 days): 109.8 ± 22.7 mg/dL
serum total cholesterol level ([1]; ND mice, 3 mg/kg/day (control 96.5±16.5)): 97.4 ± 18.3 mg/dL
liver weight, berberine vs control treated subgroup ([2]; ND mice): no significant difference
toxicity to FD mice organs or to ND mice ([2]; up to 3 mg/kg/day i.p., 36 days): did not appear to exhibit any obvious toxicity
reduction in fat droplets (3T3-L1 cells [3]; 1 μM): 30.6%
reduction in fat droplets (3T3-L1 cells [3]; 2 μM): 35.8%
reduction in fat droplets (3T3-L1 cells [3]; 4 μM): 40%
reduction in fat droplets (3T3-L1 cells [3]; 8 μM): 48.6%
inhibition at 1 µM (3T3-L1 cells [3]; Mus musculus, 3T3-L1, 192 h, 1 μM, 8 days, fully differentiated cells, read-out: inhibition of fat amount): 59.4%
inhibition at 2 µM (3T3-L1 cells [3]; Mus musculus, 3T3-L1, 192 h, 2 μM, 8 days, fully differentiated cells, read-out: inhibition of fat amount): 58.4%
inhibition at 4 µM (3T3-L1 cells [3]; Mus musculus, 3T3-L1, 192 h, 4 μM, 8 days, fully differentiated cells, read-out: inhibition of fat amount): 71.8%
inhibition at 8 µM (3T3-L1 cells [3]; Mus musculus, 3T3-L1, 192 h, 8 μM, 8 days, fully differentiated cells, read-out: inhibition of fat amount): 72.6%
food intake ([4]; FD mice, 0.75 mg/kg/day, 36 days (control 3.5±0.4)): 3.0±0.3 g/mouse/day
food intake [4, 7]: 2.7±0.5 g/mouse/day
food intake ([4]; FD mice, 3 mg/kg/day, 36 days): 2.5±0.2 g/mouse/day
food intake ([4]; ND mice, 3 mg/kg/day, 36 days (control 3.8±0.7)): 3.3±0.5 g/mouse/day
reduction in lipid content vs no berberine treated group (3T3-L1 cells [5]; 15 μM clozapine group): 78.5%
reduction in lipid content vs no berberine treated group (3T3-L1 cells [5]; 25 μM risperidone group): 78.7%
reduction in lipid content vs no berberine treated group (3T3-L1 cells [5]; 30 μM clozapine group): 73.2%
reduction in lipid content vs no berberine treated group (3T3-L1 cells [5]; 50 μM risperidone group): 81%
reduction in lipid content vs no berberine treated group (3T3-L1 cells [5]; control group (clozapine series)): 70%
reduction in lipid content vs no berberine treated group (3T3-L1 cells [5]; control group (risperidone series)): 72%

evodiamine
increase of SERT mRNA expression vs control group ([6]; 2 μM evodiamine): 2.5 fold
increase of SERT mRNA expression vs control group ([6]; 4 μM evodiamine): 1.7 fold
